# In publication PMC3808535, “Pannexin1 Channel Proteins in the Zebrafish Retina Have Shared and Unique Properties” (PLoS ONE, 2013):
# Substitutions are numbered along the chain they refer to.
# How the values were obtained:
# Assay in all cases: ethidium dye uptake in transfected N2a cells
# Format in all cases: cell-based
# drPanx1b [1] = molecular target: T1, drPanx1b (Danio rerio, UniProt F1QSR7, R75A/H238Y); details: 500 uM ATP, 20 uM EtBr, 5 min, pH 7.4; endogenous Panx1 and P2X7-R in N2a host
# T1 construct: gene panx1b; full length aa 1-422, C-terminal EYFP fusion (pEYFP-N1), transient in mouse N2a cells
# T1 sequence (F1QSR7 1-422 R75A/H238Y): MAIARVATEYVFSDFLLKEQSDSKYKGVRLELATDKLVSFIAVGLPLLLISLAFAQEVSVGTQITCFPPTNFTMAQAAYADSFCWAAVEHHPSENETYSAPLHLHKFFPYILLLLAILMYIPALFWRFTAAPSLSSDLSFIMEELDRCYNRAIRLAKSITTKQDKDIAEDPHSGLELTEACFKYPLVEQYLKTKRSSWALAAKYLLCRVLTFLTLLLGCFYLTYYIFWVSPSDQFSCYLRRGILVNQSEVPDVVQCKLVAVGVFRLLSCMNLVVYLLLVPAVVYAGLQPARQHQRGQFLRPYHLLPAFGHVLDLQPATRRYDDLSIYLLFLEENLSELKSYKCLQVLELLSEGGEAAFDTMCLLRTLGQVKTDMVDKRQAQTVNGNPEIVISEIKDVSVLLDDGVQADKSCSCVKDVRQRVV
# drPanx1b [2] = molecular target: T2, drPanx1b (Danio rerio, UniProt F1QSR7, H238Y)
# T2 construct: gene panx1b; full length aa 1-422, C-terminal EYFP fusion (pEYFP-N1), transient in mouse N2a cells
# T2 sequence (F1QSR7 1-422 H238Y): T1 sequence (F1QSR7 1-422 R75A/H238Y) with A75R
# drPanx1a [3] = molecular target: T3, drPanx1a (Danio rerio, UniProt A0A8M1PG01)
# T3 construct: gene panx1a; full length aa 1-417 (natural Cys at position 76), C-terminal EYFP fusion (pEYFP-N1), transient in mouse N2a cells
# T3 sequence (A0A8M1PG01 1-417): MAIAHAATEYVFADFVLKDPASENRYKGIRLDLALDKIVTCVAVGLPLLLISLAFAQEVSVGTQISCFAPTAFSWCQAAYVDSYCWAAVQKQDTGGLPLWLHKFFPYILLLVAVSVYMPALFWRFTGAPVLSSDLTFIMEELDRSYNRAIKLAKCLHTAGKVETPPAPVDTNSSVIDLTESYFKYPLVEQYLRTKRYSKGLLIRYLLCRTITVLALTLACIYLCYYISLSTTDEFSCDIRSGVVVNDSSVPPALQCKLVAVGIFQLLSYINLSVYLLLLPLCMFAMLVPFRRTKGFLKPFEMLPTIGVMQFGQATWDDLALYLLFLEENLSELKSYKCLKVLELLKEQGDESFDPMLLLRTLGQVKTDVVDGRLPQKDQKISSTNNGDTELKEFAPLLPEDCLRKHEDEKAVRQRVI
# drPanx1a [4] = molecular target: T4, drPanx1a (Danio rerio, UniProt A0A8M1PG01, C76E); details: 3 mM ATP, 20 uM EtBr, 5 min, pH 7.4; endogenous Panx1 and P2X7-R in N2a host
# T4 construct: gene panx1a; full length aa 1-417 (natural Cys at position 76), C-terminal EYFP fusion (pEYFP-N1), transient in mouse N2a cells
# T4 sequence (A0A8M1PG01 1-417 C76E): T3 sequence (A0A8M1PG01 1-417) with C76E
# mPanx1 [5] = molecular target: T5, mPanx1 (Mus musculus, UniProt Q9JIP4); details: 20 uM EtBr, 5 min, pH 7.4; channel permeant dye
# T5 construct: gene Panx1; full length aa 1-426, C-terminal EYFP fusion (pEYFP-N1), transient in mouse N2a cells
# drPanx1b [6] = molecular target: T6, drPanx1b (Danio rerio, UniProt F1QSR7, R75K/H238Y); details: 100 uM BBG, 20 uM EtBr, 5 min, pH 7.4; endogenous Panx1 and P2X7-R in N2a host
# T6 construct: gene panx1b; full length aa 1-422, C-terminal EYFP fusion (pEYFP-N1), transient in mouse N2a cells
# T6 sequence (F1QSR7 1-422 R75K/H238Y): T1 sequence (F1QSR7 1-422 R75A/H238Y) with A75K
# mPanx1 [7] = molecular target: T5, mPanx1; details: read-out: % inhibition at 100 uM
# drPanx1b [8] = molecular target: T7, drPanx1b (Danio rerio, UniProt F1QSR7, R75E/H238Y); details: 100 uM BBG, 20 uM EtBr, 5 min, pH 7.4; endogenous Panx1 and P2X7-R in N2a host
# T7 construct: gene panx1b; full length aa 1-422, C-terminal EYFP fusion (pEYFP-N1), transient in mouse N2a cells
# T7 sequence (F1QSR7 1-422 R75E/H238Y): T1 sequence (F1QSR7 1-422 R75A/H238Y) with A75E
# drPanx1a [9] = molecular target: T8, drPanx1a (Danio rerio, UniProt A0A8M1PG01, C76R); details: 100 uM BBG, 20 uM EtBr, 5 min, pH 7.4; endogenous Panx1 and P2X7-R in N2a host
# T8 construct: gene panx1a; full length aa 1-417 (natural Cys at position 76), C-terminal EYFP fusion (pEYFP-N1), transient in mouse N2a cells
# T8 sequence (A0A8M1PG01 1-417 C76R): T3 sequence (A0A8M1PG01 1-417) with C76R
# drPanx1b [10] = molecular target: T9, drPanx1b (Danio rerio, UniProt F1QSR7, R75C/H238Y); details: 100 uM BBG, 20 uM EtBr, 5 min, pH 7.4; endogenous Panx1 and P2X7-R in N2a host
# T9 construct: gene panx1b; full length aa 1-422, C-terminal EYFP fusion (pEYFP-N1), transient in mouse N2a cells
# T9 sequence (F1QSR7 1-422 R75C/H238Y): T1 sequence (F1QSR7 1-422 R75A/H238Y) with A75C
# drPanx1a [11] = molecular target: T10, drPanx1a (Danio rerio, UniProt A0A8M1PG01, C76A); details: 100 uM BBG, 20 uM EtBr, 5 min, pH 7.4; endogenous Panx1 and P2X7-R in N2a host
# T10 construct: gene panx1a; full length aa 1-417 (natural Cys at position 76), C-terminal EYFP fusion (pEYFP-N1), transient in mouse N2a cells
# T10 sequence (A0A8M1PG01 1-417 C76A): T3 sequence (A0A8M1PG01 1-417) with C76A
# drPanx1a [12] = molecular target: T11, drPanx1a (Danio rerio, UniProt A0A8M1PG01, C76K); details: 100 uM BBG, 20 uM EtBr, 5 min, pH 7.4; endogenous Panx1 and P2X7-R in N2a host
# T11 construct: gene panx1a; full length aa 1-417 (natural Cys at position 76), C-terminal EYFP fusion (pEYFP-N1), transient in mouse N2a cells
# T11 sequence (A0A8M1PG01 1-417 C76K): T3 sequence (A0A8M1PG01 1-417) with C76K
# drPanx1a [13] = molecular target: T4, drPanx1a; details: 100 uM BBG, 20 uM EtBr, 5 min, pH 7.4; endogenous Panx1 and P2X7-R in N2a host
# drPanx1b [14] = molecular target: T1, drPanx1b; details: 100 uM BBG, 20 uM EtBr, 5 min, pH 7.4; endogenous Panx1 and P2X7-R in N2a host
# T5 sequence (Q9JIP4 whole entry, the tested form may be a part): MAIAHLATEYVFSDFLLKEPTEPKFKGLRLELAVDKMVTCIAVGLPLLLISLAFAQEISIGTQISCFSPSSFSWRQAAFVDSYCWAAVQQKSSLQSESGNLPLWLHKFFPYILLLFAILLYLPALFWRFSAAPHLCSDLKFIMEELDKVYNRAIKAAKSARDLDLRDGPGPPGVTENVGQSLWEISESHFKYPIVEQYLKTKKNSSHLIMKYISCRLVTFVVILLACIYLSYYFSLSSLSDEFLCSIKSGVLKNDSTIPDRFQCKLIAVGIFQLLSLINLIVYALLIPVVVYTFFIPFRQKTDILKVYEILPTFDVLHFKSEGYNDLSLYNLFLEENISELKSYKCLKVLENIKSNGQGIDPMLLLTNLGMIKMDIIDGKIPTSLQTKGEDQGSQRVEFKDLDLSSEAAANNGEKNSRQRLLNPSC
compound,measurement,setting,value
Nc1ncnc2c1ncn2[C@@H]1O[C@H](COP(=O)(O)OP(=O)(O)OP(=O)(O)O)[C@@H](O)[C@H]1O [ATP],% inhibition at 500 uM,drPanx1b [1],drPanx1b WT ≥ R75K ≥ R75C > R75E ≥ R75A
same,inhibition at 500 µM,drPanx1b [2],27.3 ± 1.9%
same,inhibition at 3000 µM,drPanx1a [3]; read-out: % inhibition at 3 mM,20.2 ± 2.2%
same,% inhibition at 3 mM,drPanx1a [4],ATP: drPanx1a-C76E > C76A ≥ WT
CC[n+]1c(-c2ccccc2)c2cc(N)ccc2c2ccc(N)cc21 [Ethidium bromide],ethidium dye uptake in transfected N2a cells,mPanx1 [5],EtBr uptake was significantly increased in mPanx1
CCOc1ccc(Nc2ccc(C(=C3C=CC(=[N+](CC)Cc4cccc(S(=O)(=O)[O-])c4)C=C3C)c3ccc(N(CC)Cc4cccc(S(=O)(=O)O)c4)cc3C)cc2)cc1 [brilliant blue G],% inhibition at 100 uM,drPanx1b [6],drPanx1b WT > R75C > R75K ≥ R75A ≥ R75E
same,inhibition at 100 µM,mPanx1 [7],40.6 ± 1.4%
same,% inhibition at 100 uM,drPanx1b [8],drPanx1b WT > R75C > R75K ≥ R75A ≥ R75E
same,inhibition at 100 µM,drPanx1b [2],64.1 ± 1%
same,inhibition at 100 µM,drPanx1a [3],33.4 ± 1.7%
same,% inhibition at 100 uM,drPanx1a [9],BBG: drPanx1a-C76R > C76K > WT
same,% inhibition at 100 uM,drPanx1b [10],drPanx1b WT > R75C > R75K ≥ R75A ≥ R75E
same,% inhibition at 100 uM,drPanx1a [11],BBG: drPanx1a-C76R > C76K > WT ≥ C76A > C76E
same,% inhibition at 100 uM,drPanx1a [12],BBG: drPanx1a-C76R > C76K > WT
same,% inhibition at 100 uM,drPanx1a [13],BBG: drPanx1a-C76R > C76K > WT ≥ C76A > C76E
same,% inhibition at 100 uM,drPanx1b [14],drPanx1b WT > R75C > R75K ≥ R75A ≥ R75E
